Read-outs that look alike come from different tables or passages of the source.
What was measured:
[1] = 4 weeks, liquid chromatography
Procedure: The experimental conditions are as follows:
Detector: Ultraviolet absorptiometer (wave length: 220 nm)
Column: A stainless steel tube of 6 mm ID and 15 cm length being packed with octadecylated silica gel of […] in particle size designed for use in liquid chromatograph.
Mobile phase: As prepared by dissolving 0.4 g of crystalline sodium dihydrogenphosphate and 0.3 g of sodium chloride in 50 ml of water, and adding 500 ml of methanol and 450 ml of acetonitrile, followed by addition of phosphoric acid to adjust to pH 4.0.
Flow rate: As regulated so that the retention time may be about 12 min.

[2] = target: T1, elastase originated from human white blood cells (Homo sapiens, UniProt P08246); test: Elastase inhibitory activity (fluorogenic synthetic substrate); format: biochemical
T1 construct: elastase originated from human white blood cells; from tissue; host or cells: human white blood cells
T1 sequence (P08246 30-247 limits assumed): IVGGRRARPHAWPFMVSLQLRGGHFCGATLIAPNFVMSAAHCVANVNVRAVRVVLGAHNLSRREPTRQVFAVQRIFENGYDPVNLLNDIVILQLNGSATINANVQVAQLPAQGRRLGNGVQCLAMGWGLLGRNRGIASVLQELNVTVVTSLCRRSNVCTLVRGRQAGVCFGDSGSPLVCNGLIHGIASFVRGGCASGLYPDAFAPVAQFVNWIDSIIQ
Source text: are the reversibly extensible, highly elastic protein that is principal constituent of elastic fibers to maintain the extensibility and elasticity of the skin. […] are degraded and synthesized in the sustainable manner, thus acting to maintain the extensibility and elasticity of the skin, but may lose their extensibility and elasticity, when the rate of their degradation by elastase owing to aging, etc. exceeds the rate of their synthesis. Accordingly, inhibition of the elastase enables the skin to maintain its extensibility and elasticity. Such being the case, the Compound of the present invention is tested for its elastase inhibitory activity in the following manner: […] Testing method […]

| Molecule | Residual ratio ([1]; storage at 4° C.) [%] | Residual ratio ([1]; storage at 40° C.) [%] | Residual ratio ([1]; storage at 50° C.) [%] | Elastase inhibitory activity (in words) ([2]; 0.01 to 1 mM, Table 2) | Ratio of elastase inhibition ([2]; test specimen 0.01 mM) | Ratio of elastase inhibition ([2]; test specimen 0.1 mM) | Ratio of elastase inhibition ([2]; test specimen 1 mM) |
| --- | --- | --- | --- | --- | --- | --- | --- |
| CCO.Cc1c(C)c2c(c(C)c1OC(=O)/C=C\C(=O)OC1=C(O)[C@@H]([C@@H](O)CO)OC1=O)CCC(C)(CCCC(C)CCCC(C)CCCC(C)C)O2 (stereo partly drawn) [Reference Example 1, L-Ascorbic acid-2-O-maleic acid-α-tocopherol diester.ethanol adduct] | 99.7 | 90.9 | 81.7 | – | – | – | – |
| L-Ascorbic acid-2-O-maleic acid-α-tocopherol diester.1-propanol adduct [Example 1] | – | – | – | remarkable elastase inhibitory activity | 4 | 19 | 71 |

Reference: patent US6828348B2, “L-ascorbic acid-2-o-maleic acid-a-tocopherol diester 1-propanol adduct and process for producing the same” (Senju Pharmaceutical Co., Ltd., priority 2002, dated 2004)
